system: cancer cells; experiment: MTT cytotoxic assay of esterification products (Cytotoxicity activity); format: cell-based, human; settings: esterification products isolated with HPLC; graded strong / moderate / weak
How it was run: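 Cytotoxicity was read by MTT (Carmichael method, modified), with cells seeded 24 h ahead of treatment. Sixteen human cancer lines spanning bone, lung, bladder, ovary, colon, pancreas, prostate, skin, mouth, kidney, breast, liver, brain, leukemia and cervix were used. Test samples were acyl chloride esterification products of triterpenes, as mixtures or HPLC-purified compounds.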

SMILES	Cytotoxicity activity
CC=C(C)C(=O)OCC1(C)C(O)CCC2(C)C1CCC1(C)C2CC=C2C3CC(C)(C)C(O)C(OC(C)=O)C3(CO)C(O)CC21C (stereo not shown) [Tig—Acy—6]	moderate
CC=C(C)C(=O)OCC1(C)C(O)CCC2(C)C1CCC1(C)C2CC=C2C3CC(C)(C)C(O)C(O)C3(COC(=O)C(C)=CC)C(O)CC21C (stereo not shown) [Tig—Ang—1]	strong
CC=C(C)C(=O)OCC1(C)C(O)CCC2(C)C1CCC1(C)C2CC=C2C3CC(C)(C)C(OC(=O)C(C)=CC)C(O)C3(COC(=O)C(C)=CC)C(O)CC21C (stereo not shown) [Tig—Ang—2]	moderate
CC=C(C)C(=O)OCC1(C)C(O)CCC2(C)C1CCC1(C)C2CC=C2C3CC(C)(C)C(O)C(OC(=O)C(C)=CC)C3(COC(=O)C(C)=CC)C(O)CC21C (stereo not shown) [Tig—Ang—3]	moderate
CC=C(C)C(=O)OCC1(C)C(OC(=O)C(C)=CC)CCC2(C)C1CCC1(C)C2CC=C2C3CC(C)(C)C(O)C(O)C3(COC(=O)C(C)=CC)C(O)CC21C (stereo not shown) [Tig—Ang—4]	moderate
CC=C(C)C(=O)OCC1(C)C(O)CCC2(C)C1CCC1(C)C2CC=C2C3CC(C)(C)C(OC(=O)C(C)=CC)C(O)C3(CO)C(O)CC21C (stereo not shown) [Tig—Ang—5]	moderate
CC=C(C)C(=O)OCC1(C)C(O)CCC2(C)C1CCC1(C)C2CC=C2C3CC(C)(C)C(O)C(OC(=O)C(C)=CC)C3(CO)C(O)CC21C (stereo not shown) [Tig—Ang—6]	moderate
CC=C(C)C(=O)OCC1(C)C(O)CCC2(C)C1CCC1(C)C2CC=C2C3CC(C)(C)C(O)C(O)C3(COC(=O)C=Cc3ccccc3)C(O)CC21C (stereo not shown) [Tig—Cin—1]	strong
CC=C(C)C(=O)OCC1(C)C(O)CCC2(C)C1CCC1(C)C2CC=C2C3CC(C)(C)C(OC(=O)C=Cc4ccccc4)C(O)C3(COC(=O)C=Cc3ccccc3)C(O)CC21C (stereo not shown) [Tig—Cin—2]	moderate
CC=C(C)C(=O)OCC1(C)C(O)CCC2(C)C1CCC1(C)C2CC=C2C3CC(C)(C)C(O)C(OC(=O)C=Cc4ccccc4)C3(COC(=O)C=Cc3ccccc3)C(O)CC21C (stereo not shown) [Tig—Cin—3]	moderate
CC=C(C)C(=O)OCC1(C)C(OC(=O)C=Cc2ccccc2)CCC2(C)C1CCC1(C)C2CC=C2C3CC(C)(C)C(O)C(O)C3(COC(=O)C=Cc3ccccc3)C(O)CC21C (stereo not shown) [Tig—Cin—4]	moderate
CC=C(C)C(=O)OCC1(C)C(O)CCC2(C)C1CCC1(C)C2CC=C2C3CC(C)(C)C(OC(=O)C=Cc4ccccc4)C(O)C3(CO)C(O)CC21C (stereo not shown) [Tig—Cin—5]	moderate
CC=C(C)C(=O)OCC1(C)C(O)CCC2(C)C1CCC1(C)C2CC=C2C3CC(C)(C)C(O)C(OC(=O)C=Cc4ccccc4)C3(CO)C(O)CC21C (stereo not shown) [Tig—Cin—6]	moderate
CC=CC(=O)OCC12C(O)CC3(C)C(=CCC4C5(C)CCC(O)C(C)(COC(=O)C(C)=CC)C5CCC43C)C1CC(C)(C)C(O)C2O (stereo not shown) [Tig—Cro—1]	strong
CC=CC(=O)OCC12C(O)CC3(C)C(=CCC4C5(C)CCC(O)C(C)(COC(=O)C(C)=CC)C5CCC43C)C1CC(C)(C)C(OC(=O)C=CC)C2O (stereo not shown) [Tig—Cro—2]	moderate
CC=CC(=O)OCC12C(O)CC3(C)C(=CCC4C5(C)CCC(O)C(C)(COC(=O)C(C)=CC)C5CCC43C)C1CC(C)(C)C(O)C2OC(=O)C=CC (stereo not shown) [Tig—Cro—3]	moderate
CC=CC(=O)OCC12C(O)CC3(C)C(=CCC4C5(C)CCC(OC(=O)C=CC)C(C)(COC(=O)C(C)=CC)C5CCC43C)C1CC(C)(C)C(O)C2O (stereo not shown) [Tig—Cro—4]	moderate
CC=CC(=O)OC1C(O)C2(CO)C(O)CC3(C)C(=CCC4C5(C)CCC(O)C(C)(COC(=O)C(C)=CC)C5CCC43C)C2CC1(C)C (stereo not shown) [Tig—Cro—5]	moderate
CC=CC(=O)OC1C(O)C(C)(C)CC2C3=CCC4C5(C)CCC(O)C(C)(COC(=O)C(C)=CC)C5CCC4(C)C3(C)CC(O)C21CO (stereo not shown) [Tig—Cro—6]	moderate
CC=C(C)C(=O)OCC1(C)C(O)CCC2(C)C1CCC1(C)C2CC=C2C3CC(C)(C)C(O)C(O)C3(COC(=O)C(CC)CC)C(O)CC21C (stereo not shown) [Tig—Eth—1]	strong
CC=C(C)C(=O)OCC1(C)C(O)CCC2(C)C1CCC1(C)C2CC=C2C3CC(C)(C)C(OC(=O)C(CC)CC)C(O)C3(COC(=O)C(CC)CC)C(O)CC21C (stereo not shown) [Tig—Eth—2]	moderate
CC=C(C)C(=O)OCC1(C)C(O)CCC2(C)C1CCC1(C)C2CC=C2C3CC(C)(C)C(O)C(OC(=O)C(CC)CC)C3(COC(=O)C(CC)CC)C(O)CC21C (stereo not shown) [Tig—Eth—3]	moderate
CC=C(C)C(=O)OCC1(C)C(O)CCC2(C)C1CCC1(C)C2CC=C2C3CC(C)(C)C(OC(=O)C(CC)CC)C(O)C3(CO)C(O)CC21C (stereo not shown) [Tig—Eth—5]	moderate
CC=C(C)C(=O)OCC1(C)C(O)CCC2(C)C1CCC1(C)C2CC=C2C3CC(C)(C)C(O)C(OC(=O)C(CC)CC)C3(CO)C(O)CC21C (stereo not shown) [Tig—Eth—6]	moderate
CC=C(C)C(=O)OCC1(C)C(O)CCC2(C)C1CCC1(C)C2CC=C2C3CC(C)(C)C(O)C(O)C3(COC(=O)CCCCC)C(O)CC21C (stereo not shown) [Tig—Hex—1]	strong

SMILES	Cytotoxicity activity
CC=C(C)C(=O)OCC1(C)C(O)CCC2(C)C1CCC1(C)C2CC=C2C3CC(C)(C)C(OC(=O)CCCCC)C(O)C3(COC(=O)CCCCC)C(O)CC21C (stereo not shown) [Tig—Hex—2]	moderate
CC=C(C)C(=O)OCC1(C)C(O)CCC2(C)C1CCC1(C)C2CC=C2C3CC(C)(C)C(O)C(OC(=O)CCCCC)C3(COC(=O)CCCCC)C(O)CC21C (stereo not shown) [Tig—Hex—3]	moderate
CC=C(C)C(=O)OCC1(C)C(OC(=O)CCCCC)CCC2(C)C1CCC1(C)C2CC=C2C3CC(C)(C)C(O)C(O)C3(COC(=O)CCCCC)C(O)CC21C (stereo not shown) [Tig—Hex—4]	moderate
CC=C(C)C(=O)OCC1(C)C(O)CCC2(C)C1CCC1(C)C2CC=C2C3CC(C)(C)C(OC(=O)CCCCC)C(O)C3(CO)C(O)CC21C (stereo not shown) [Tig—Hex—5]	moderate
CC=C(C)C(=O)OCC1(C)C(O)CCC2(C)C1CCC1(C)C2CC=C2C3CC(C)(C)C(O)C(OC(=O)CCCCC)C3(CO)C(O)CC21C (stereo not shown) [Tig—Hex—6]	moderate
C=CCCC(=O)OCC12C(O)CC3(C)C(=CCC4C5(C)CCC(O)C(C)(COC(=O)C(C)=CC)C5CCC43C)C1CC(C)(C)C(O)C2O (stereo not shown) [Tig—Pen—1]	strong
C=CCCC(=O)OCC12C(O)CC3(C)C(=CCC4C5(C)CCC(O)C(C)(COC(=O)C(C)=CC)C5CCC43C)C1CC(C)(C)C(OC(=O)CCC=C)C2O (stereo not shown) [Tig—Pen—2]	moderate
C=CCCC(=O)OCC12C(O)CC3(C)C(=CCC4C5(C)CCC(O)C(C)(COC(=O)C(C)=CC)C5CCC43C)C1CC(C)(C)C(O)C2OC(=O)CCC=C (stereo not shown) [Tig—Pen—3]	moderate
C=CCCC(=O)OCC12C(O)CC3(C)C(=CCC4C5(C)CCC(OC(=O)CCC=C)C(C)(COC(=O)C(C)=CC)C5CCC43C)C1CC(C)(C)C(O)C2O (stereo not shown) [Tig—Pen—4]	moderate
C=CCCC(=O)OC1C(O)C2(CO)C(O)CC3(C)C(=CCC4C5(C)CCC(O)C(C)(COC(=O)C(C)=CC)C5CCC43C)C2CC1(C)C (stereo not shown) [Tig—Pen—5]	moderate
C=CCCC(=O)OC1C(O)C(C)(C)CC2C3=CCC4C5(C)CCC(O)C(C)(COC(=O)C(C)=CC)C5CCC4(C)C3(C)CC(O)C21CO (stereo not shown) [Tig—Pen—6]	moderate
CC=C(C)C(=O)OCC1(C)C(O)CCC2(C)C1CCC1(C)C2CC=C2C3CC(C)(C)C(OC(C)=O)C(OC(C)=O)C3(COC(=O)C(C)=CC)C(O)CC21C (stereo not shown) [Tig—R—Acy—1]	weak
CC=C(C)C(=O)OCC1(C)C(O)CCC2(C)C1CCC1(C)C2CC=C2C3CC(C)(C)C(OC(C)=O)C(O)C3(COC(=O)C(C)=CC)C(O)CC21C (stereo not shown) [Tig—R—Acy—2]	moderate
CC=C(C)C(=O)OCC1(C)C(O)CCC2(C)C1CCC1(C)C2CC=C2C3CC(C)(C)C(O)C(OC(C)=O)C3(COC(=O)C(C)=CC)C(O)CC21C (stereo not shown) [Tig—R—Acy—3]	moderate
CC=C(C)C(=O)OCC1(C)C(OC(C)=O)CCC2(C)C1CCC1(C)C2CC=C2C3CC(C)(C)C(O)C(O)C3(COC(=O)C(C)=CC)C(O)CC21C (stereo not shown) [Tig—R—Acy—4]	moderate
CC=C(C)C(=O)OCC1(C)C(OC(C)=O)CCC2(C)C1CCC1(C)C2CC=C2C3CC(C)(C)C(OC(C)=O)C(O)C3(COC(=O)C(C)=CC)C(O)CC21C (stereo not shown) [Tig—R—Acy—5]	weak
CC=C(C)C(=O)OCC1(C)C(OC(C)=O)CCC2(C)C1CCC1(C)C2CC=C2C3CC(C)(C)C(O)C(OC(C)=O)C3(COC(=O)C(C)=CC)C(O)CC21C (stereo not shown) [Tig—R—Acy—6]	weak
CC=C(C)C(=O)OCC1(C)C(O)CCC2(C)C1CCC1(C)C2CC=C2C3CC(C)(C)C(OC(=O)C(C)=CC)C(OC(=O)C(C)=CC)C3(COC(=O)C(C)=CC)C(O)CC21C (stereo not shown) [Tig—R—Ang—1]	weak
CC=C(C)C(=O)OCC1(C)C(OC(=O)C(C)=CC)CCC2(C)C1CCC1(C)C2CC=C2C3CC(C)(C)C(OC(=O)C(C)=CC)C(O)C3(COC(=O)C(C)=CC)C(O)CC21C (stereo not shown) [Tig—R—Ang—5]	weak
CC=C(C)C(=O)OCC1(C)C(OC(=O)C(C)=CC)CCC2(C)C1CCC1(C)C2CC=C2C3CC(C)(C)C(O)C(OC(=O)C(C)=CC)C3(COC(=O)C(C)=CC)C(O)CC21C (stereo not shown) [Tig—R—Ang—6]	weak
CC=C(C)C(=O)OCC1(C)C(O)CCC2(C)C1CCC1(C)C2CC=C2C3CC(C)(C)C(OC(=O)C=Cc4ccccc4)C(OC(=O)C=Cc4ccccc4)C3(COC(=O)C(C)=CC)C(O)CC21C (stereo not shown) [Tig—R—Cin—1]	weak
CC=C(C)C(=O)OCC1(C)C(O)CCC2(C)C1CCC1(C)C2CC=C2C3CC(C)(C)C(OC(=O)C=Cc4ccccc4)C(O)C3(COC(=O)C(C)=CC)C(O)CC21C (stereo not shown) [Tig—R—Cin—2]	moderate
CC=C(C)C(=O)OCC1(C)C(O)CCC2(C)C1CCC1(C)C2CC=C2C3CC(C)(C)C(O)C(OC(=O)C=Cc4ccccc4)C3(COC(=O)C(C)=CC)C(O)CC21C (stereo not shown) [Tig—R—Cin—3]	moderate
CC=C(C)C(=O)OCC1(C)C(OC(=O)C=Cc2ccccc2)CCC2(C)C1CCC1(C)C2CC=C2C3CC(C)(C)C(O)C(O)C3(COC(=O)C(C)=CC)C(O)CC21C (stereo not shown) [Tig—R—Cin—4]	moderate

From patent US20230340012A1, “NATURAL AND SYNTHETIC COMPOUNDS FOR TREATING CANCER AND OTHER DISEASES” (PACIFIC ARROW LIMITED, priority 2009, published 2023)
